Measurements taken from patent US9394285B2 (Pfizer Inc., priority 2013, dated 2016).

Target: human AMPK (full-length γ1, β1 and α1 subunits) (Homo sapiens (Human), UniProt Q13131+Q9Y478)
Experiment: AMPK in vitro biochemical assay (33P-based, SAMS peptide, PP2A dephosphorylation)
Conditions: for EC50: activation of phosphorylated AMPK, 33P-ATP, SAMS peptide, PP2A treatment, 4-parameter fit; for Emax / Maximum: counts as % of positive control wells (enzyme, allosteric activator or AMP, PP2A and substrate); for Emax: read-out: Maximum
Source text: We designed a tricistronic AMPK expression construct that included open reading frames encoding the full-length γ1, β1 and α1 subunits of human AMPK with a ribosome-binding site (RBS) ahead of each coding region and subcloned this into pET-14b expression vector (Novagen, Madison, Wis.) using standard molecular biology techniques. AMPK tricistronic construct was transformed into E. coli BL21-CodonPlus™ (DE3)-RIPL strain (Stratagene) and transformants were selected on LB (Luria-Bertani) agar plates containing ampicillin (100 μg/ml). […] Optical density sample measurements were made on an UltroSpec 2000 spectrophotometer (Pharmacia Biotech) at 600 nm. When the cell density reached ˜0.9 OD, the temperature was reduced to 18° C. and the culture was induced at 18° C. with 0.1 mM Isopropylthiogalactoside (IPTG). […] The cell pellets were aliquoted into four portions, flash frozen in liquid nitrogen and were stored at −80° C. until purification. For purification, frozen cell paste was thawed and resuspended in 50 ml lysis buffer (50 mM Tris, pH 8.0, 150 mM NaCl, 10% glycerol, 2 mM Tris-2-carboxyethyl phosphine (TCEP), 20 mM imidazole and 0.001% Triton X-100). After sonication, insoluble material was removed by centrifugation at 15,000 rpm in a Sorvall® RC5 plus centrifuge for 30 min at 4° C. and the supernatant was loaded onto a 5 ml HisTrap™ HP column (GE Healthcare, Piscataway, N.J.) and washed with five column volumes of lysis buffer. Bound proteins were eluted using an elution buffer containing 300 mM imidazole. Fractions containing AMPK subunits were pooled based on SDS-10% PAGE analysis and dialyzed overnight in dialysis buffer (50 mM Tris, pH 8.0, 150 mM NaCl, 10% glycerol, 2 mM TCEP, and 0.001% Triton X-100). […] The phosphorylated AMPK complex was re-purified on HisTrap™ HP column as before, dialyzed over night in dialysis buffer. The phosphorylated AMPK complex was further purified by gel filtration chromatography with a Superdex 200 HiLoad 16/60 column (GE Healthcare) in SEC buffer (50 mM Tris, pH 8.0, 150 mM NaCl, 10% glycerol, 2 mM TCEP, and 0.001% Triton X-100).
The harvest time (72 hours post infection) was indicated by percent cell viability (to 85-90%) and increased cell diameter (3-4 μm). […] For purification, the cell paste was resuspended in 500 mL lysis buffer (50 mM Tris pH 8.0, 150 mM NaCl, 25 mM imidazole, 10% glycerol, 2 mM MgCl2, 2 mM TCEP+protease inhibitor cocktail. After lysis, cellular debris was removed by centrifugation at 36K×g for 1 hour. The resulting supernatant was filtered at 0.2 micron before applying to a 1 mL nickel charged IMAC column (HisTrap, GE). The bound resin was washed to baseline with 50 CV of 50 mM Tris pH 8.0, 150 mM NaCl, 25 mM imidazole, 10% glycerol, 2 mM MgCl2, 2 mM TCEP before eluting over a 20 CV gradient to 100% with wash buffer containing 500 mM imidazole. Pooled fractions containing PP2A were combined and diluted 10× with 50 mM Tris pH 8.0, 10% glycerol, 1 mM TCEP and applied to a 1 mL AIEX resin (HiTrap QFF, GE). The bound resin was washed with dilution buffer and PP2A was eluted over a 20 CV gradient to 100% 50 mM Tris pH 8.0, 500 mM NaCl, 10% glycerol, 1 mM TCEP and was further diluted 1:1 with 50 mM Tris pH 8.0, 150 mM NaCl, 10% glycerol, and 1 mM TCEP buffer.
The biochemical EC50 (half-maximal concentration required for full activation) of compounds for the activation of AMPK was evaluated by ^33P-based assay using SAMS peptide (commercially available) derived from ACC-1. Twenty μl of phosphorylated AMPK diluted in assay buffer, (50 mM HEPES, 1 mM EGTA, 10 mM MgCl2, 0.25 mM DTT, 0.01% Tween-20, 0.01% BSA (pH 7.5)) was added to 384 well plates containing 1 μL of test compound. Following a fifteen minute room temperature incubation, 10 μL of protein phosphatase PP2A was added to the plate to dephosphorylate pThr172 of AMPK. […] The reaction was terminated after 60 minutes incubation at room temperature by the addition of 15 μL of 2% H3PO4.

Chain of human AMPK (full-length γ1, β1 and α1 subunits) (Q13131 whole entry): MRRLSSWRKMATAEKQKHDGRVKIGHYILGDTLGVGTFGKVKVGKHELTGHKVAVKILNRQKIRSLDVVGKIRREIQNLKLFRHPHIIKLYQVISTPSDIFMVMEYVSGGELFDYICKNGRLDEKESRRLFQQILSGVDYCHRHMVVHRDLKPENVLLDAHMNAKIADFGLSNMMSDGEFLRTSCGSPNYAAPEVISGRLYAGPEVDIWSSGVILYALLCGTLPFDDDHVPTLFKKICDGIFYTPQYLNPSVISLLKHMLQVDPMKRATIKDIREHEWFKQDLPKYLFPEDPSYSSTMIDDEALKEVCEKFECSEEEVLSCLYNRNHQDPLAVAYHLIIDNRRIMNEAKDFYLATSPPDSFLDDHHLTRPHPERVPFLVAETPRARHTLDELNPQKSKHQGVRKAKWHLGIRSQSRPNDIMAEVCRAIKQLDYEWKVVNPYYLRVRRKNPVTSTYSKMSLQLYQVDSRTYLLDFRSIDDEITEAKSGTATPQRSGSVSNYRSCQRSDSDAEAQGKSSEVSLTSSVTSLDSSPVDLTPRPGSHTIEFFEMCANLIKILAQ
Chain of human AMPK (full-length γ1, β1 and α1 subunits) (Q9Y478 whole entry): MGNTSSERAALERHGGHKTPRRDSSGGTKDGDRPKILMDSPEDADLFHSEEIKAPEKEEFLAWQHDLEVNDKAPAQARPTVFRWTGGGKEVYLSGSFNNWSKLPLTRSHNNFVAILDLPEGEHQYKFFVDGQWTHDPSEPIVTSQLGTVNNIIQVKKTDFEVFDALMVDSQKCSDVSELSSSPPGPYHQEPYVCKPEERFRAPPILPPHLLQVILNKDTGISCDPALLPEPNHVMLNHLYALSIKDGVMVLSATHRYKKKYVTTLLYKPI
Chain of human AMPK (full-length γ1, β1 and α1 subunits) (P54619 whole entry partner): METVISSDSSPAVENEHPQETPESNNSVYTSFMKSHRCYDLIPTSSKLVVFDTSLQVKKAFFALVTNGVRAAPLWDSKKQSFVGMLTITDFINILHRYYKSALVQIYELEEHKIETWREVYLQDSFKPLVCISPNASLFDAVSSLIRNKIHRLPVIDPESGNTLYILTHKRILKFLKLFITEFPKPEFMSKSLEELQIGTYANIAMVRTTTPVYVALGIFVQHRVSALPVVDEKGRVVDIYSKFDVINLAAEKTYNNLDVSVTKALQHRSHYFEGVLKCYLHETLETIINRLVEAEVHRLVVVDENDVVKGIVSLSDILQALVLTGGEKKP

SMILES | EC50 [nM] | Emax [%] | Maximum [%]
O=C(O)c1c[nH]c2cc(Cl)c(-c3ccc(-c4ccccc4)cc3)cc12 [Example 43, 5-(biphenyl-4-yl)-6-chloro-1H-indole-3-carboxylic acid] | 1.7 | 68 | –
O=C(O)c1c[nH]c2cc(F)c(-c3ccc(C4(CO)CCC4)cc3)c(F)c12 [Example 167, 4,6-difluoro-5-{4-[1-(hydroxymethyl)cyclobutyl]phenyl}-1H-indole-3-carboxylic acid] | 9.33 | – | 143.1
O=C(O)c1c[nH]c2cc(Cl)c(-c3ccc(OCCO)c(F)c3)cc12 [Example 81, 6-chloro-5-[3-fluoro-4-(2-hydroxyethoxy)phenyl]-1H-indole-3-carboxylic acid] | 182 | 97 | –
CC(C)(CO)c1ccc(-c2cc3c(C(=O)O)c[nH]c3cc2Cl)cc1O [Example 148, 6-chloro-5-[3-hydroxy-4-(1-hydroxy-2-methylpropan-2-yl)phenyl]-1H-indole-3-carboxylic acid] | 6.56 | 119 | –
CN1CCC(c2ccc(-c3cc4c(C(=O)O)c[nH]c4cc3Cl)cc2)C1 (centres unmarked) [Example 74, 6-chloro-5-[4-(1-methylpyrrolidin-3-yl)phenyl]-1H-indole-3-carboxylic acid] | 44.3 | 110 | –
O=C(O)c1c[nH]c2cc(Cl)c(-c3ccc(C4(CO)CCC4)cc3)cc12 [Example 72, 6-chloro-5-{4-[1-(hydroxymethyl)cyclobutyl]phenyl}-1H-indole-3-carboxylic acid] | 4.3 | 107 | –
COC(=O)N1CCC(c2ccc(-c3cc4c(C(=O)O)c[nH]c4cc3Cl)cc2)C1 (racemic) [Example 14, 6-chloro-5-{4-[1-(methoxycarbonyl)pyrrolidin-3-yl]phenyl}-1H-indole-3-carboxylic acid] | 151 | 100 | –
O=C(O)c1n[nH]c2cc(Cl)c(-c3ccc(C4CCOCC4)cc3)cc12 [Example 104, 6-Chloro-5-(4-(tetrahydro-2H-pyran-4-yl)phenyl)-1H-indazole-3-carboxylic acid] | 36.5 | 88 | –
O=C(O)c1n[nH]c2cc(Cl)c(-c3ccc(C4(CO)CCCC4)cc3)cc12 [Example 127, 6-Chloro-5-(4-(1-(hydroxymethyl)cyclopentyl)phenyl)-1H-indazole-3-carboxylic acid] | 17.2 | 81 | –
O=C(O)c1n[nH]c2cc(Cl)c(-c3ccc4c(c3)CCC4)cc12 [Example 116, 6-Chloro-5-(2,3-dihydro-1H-inden-5-yl)-1H-indazole-3-carboxylic acid] | 47.8 | 104 | –
COc1ccc(-c2cc3c(C(=O)O)n[nH]c3cc2Cl)cc1 [Example 97, 6-Chloro-5-(4-methoxyphenyl)-1H-indazole-3-carboxylic acid] | 202 | 94 | –
O=C(O)c1c[nH]c2cc(F)c(-c3ccc(C4CCCO4)cc3)c(F)c12 (centres unmarked) [Example 153, 4,6-difluoro-5-[4-(tetrahydrofuran-2-yl)phenyl]-1H-indole-3-carboxylic acid] | – | – | 112.3
CN1CCN(CCCOc2ccc(-c3cc4c(C(=O)O)c[nH]c4cc3Cl)cc2)CC1 [Example 53, 6-chloro-5-{4-[3-(4-methylpiperazin-1-yl)propoxy]phenyl}-1H-indole-3-carboxylic acid] | 22 | 120 | –
O=C(O)c1c[nH]c2cc(Cl)c(-c3ccc4c(c3)OCC4)cc12 [Example 57, 6-chloro-5-(2,3-dihydrobenzofuran-6-yl)-1H-indole-3-carboxylic acid] | 64.5 | 107 | –
COc1nc(N2CCC(OC)C2)ccc1-c1cc2c(C(=O)O)c[nH]c2cc1Cl (stereo in doubt) [Example 175, 6-chloro-5-{2-methoxy-6-[(3R)-3-methoxypyrrolidin-1-yl]pyridin-3-yl}-1H-indole-3-carboxylic acid] | 22.6 | 78.2 | –
O=C(O)c1c[nH]c2cc(Cl)c(-c3ccc(C4(C(=O)O)CC4)cc3)cc12 [Example 88, 5-[4-(1-carboxycyclopropyl)phenyl]-6-chloro-1H-indole-3-carboxylic acid] | 58.1 | 78 | –
O=C(O)c1c[nH]c2cc(Cl)c(-c3ccc(C4(CO)CC4)cc3)cc12 [Example 75, 6-chloro-5-{4-[1-(hydroxymethyl)cyclopropyl]phenyl}-1H-indole-3-carboxylic acid] | 0.5 | 91 | –
NC(=O)COc1ccc(-c2cc3c(C(=O)O)c[nH]c3cc2Cl)cc1 [Example 70, 5-[4-(2-amino-2-oxoethoxy)phenyl]-6-chloro-1H-indole-3-carboxylic acid] | 77.5 | 106 | –
N#Cc1cc2[nH]cc(C(=O)O)c2cc1-c1ccc(OCCO)cc1 [Example 95, 6-cyano-5-[4-(2-hydroxyethoxy)phenyl]-1H-indole-3-carboxylic acid] | 830 | 91 | –
CN1CCN(CCCOc2ccc(-c3cc4c(C(=O)O)c[nH]c4cc3Cl)cc2)CC1=O [Example 188, 6-chloro-5-{4-[3-(4-methyl-3-oxopiperazin-1-yl)propoxy]phenyl}-1H-indole-3-carboxylic acid] | 52.7 | 129 | –
O=C(O)c1n[nH]c2cc(Cl)c(-c3ccc(C4CCOC4)cc3)cc12 (racemic) [Example 124, (±)-6-Chloro-5-(4-(tetrahydrofuran-3-yl)phenyl)-1H-indazole-3-carboxylic acid] | 93.8 | 93 | –
O=C(O)c1c[nH]c2cc(F)c(-c3ccc(C4CCOCC4)cc3)c(F)c12 [Example 166, 4,6-difluoro-5-[4-(tetrahydro-2H-pyran-4-yl)phenyl]-1H-indole-3-carboxylic acid] | 129 | 107 | –
COc1nc(-c2cc3c(C(=O)O)c[nH]c3cc2Cl)ccc1N1CCC(O)C1 (centres unmarked) [Example 149, 6-chloro-5-[5-(3-hydroxypyrrolidin-1-yl)-6-methoxypyridin-2-yl]-1H-indole-3-carboxylic acid] | 76.9 | 88.9 | –
NC(=O)C1(c2ccc(-c3cc4c(C(=O)O)n[nH]c4cc3Cl)cc2)CCC1 [Example 122, 5-(4-(1-Carbamoylcyclobutyl)phenyl)-6-chloro-1H-indazole-3-carboxylic acid] | 160 | 75 | –
O=C(O)c1c[nH]c2cc(Cl)c(-c3ccc(OCCn4cccn4)cc3)cc12 [Example 180, 6-chloro-5-{4-[2-(1H-pyrazol-1-yl)ethoxy]phenyl}-1H-indole-3-carboxylic acid] | 11.6 | 76.2 | –
COC(C)c1ccc(-c2cc3c(C(=O)O)n[nH]c3cc2Cl)cc1 (centres unmarked) [Example 125, 6-Chloro-5-(4-(1-methoxyethyl)phenyl)-1H-indazole-3-carboxylic acid] | 132 | 90 | –
O=C(O)c1c[nH]c2cc(Cl)c(-c3ccc(C4CCCN4)cc3)cc12 (centres unmarked) [Example 83, 6-chloro-5-[4-(pyrrolidin-2-yl)phenyl]-1H-indole-3-carboxylic acid] | 819 | 108 | –
